Data published in patent US20250275959A1, “COMPOUNDS AND METHODS OF THEIR USE” (LEXICON PHARMACEUTICALS, INC., priority 2024, published 2025).

Target: hACSL5 (Homo sapiens (Human), UniProt Q9ULC5)
Experiment: Cell-based assay (CBA) with B12FA in hACSL5-transfected Expi293F / FlpIn TRex293 cells
Conditions: hACSL5-expressing cells
Procedure, shortened: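 hACSL5-expressing Expi293F or tetracycline-induced FlpIn TRex293 cells, serum- and glucose-starved 1 h, then treated 3 h with serially diluted compound plus 20 µM B12FA. After fixation, 630/520 nm emission ratio (ex 485 nm) gave % inhibition versus no-inhibitor and 10 µM compound/non-induced controls; IC50 by Hill fit.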

hACSL5, sequence (Q9ULC5 whole entry): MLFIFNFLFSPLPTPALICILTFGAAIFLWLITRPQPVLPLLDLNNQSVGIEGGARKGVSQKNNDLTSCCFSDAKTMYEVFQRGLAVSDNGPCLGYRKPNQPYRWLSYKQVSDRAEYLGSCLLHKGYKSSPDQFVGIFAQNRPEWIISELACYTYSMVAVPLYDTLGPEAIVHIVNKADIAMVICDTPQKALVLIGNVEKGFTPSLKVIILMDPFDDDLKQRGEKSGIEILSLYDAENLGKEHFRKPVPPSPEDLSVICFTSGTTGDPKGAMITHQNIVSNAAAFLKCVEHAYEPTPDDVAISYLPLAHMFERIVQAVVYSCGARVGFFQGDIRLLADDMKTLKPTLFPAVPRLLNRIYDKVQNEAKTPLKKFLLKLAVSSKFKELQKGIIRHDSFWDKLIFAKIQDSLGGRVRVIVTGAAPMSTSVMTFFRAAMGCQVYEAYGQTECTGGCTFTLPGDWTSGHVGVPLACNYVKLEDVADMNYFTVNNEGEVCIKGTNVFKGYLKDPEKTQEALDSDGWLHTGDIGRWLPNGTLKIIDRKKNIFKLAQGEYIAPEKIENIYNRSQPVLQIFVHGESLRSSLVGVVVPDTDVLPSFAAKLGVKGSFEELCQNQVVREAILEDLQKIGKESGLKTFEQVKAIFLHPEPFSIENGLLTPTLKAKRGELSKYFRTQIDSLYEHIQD

IC50 [nM]	SMILES
100 to 500	CC[C@@H](Oc1ccc(C(=O)NS(=O)(=O)c2ccc(OCCN(C)C)cc2)c(F)c1F)c1ccc(OCC2CC2)cn1 [Compound B, (R)-4-(1-(5-(cyclopropylmethoxy)pyridin-2-yl)propoxy)-N-((4-(2-(dimethylamino)ethoxy)phenyl)sulfonyl)-2,3-difluorobenzamide]
< 100	CC[C@@H](Oc1ccc(C(=O)NS(=O)(=O)N2CCN(C)CC2)c(F)c1F)c1ccc(Oc2ccccn2)cn1 [Compound D, (R)-2,3-difluoro-N-((4-methylpiperazin-1-yl)sulfonyl)-4-(1-(5-(pyridin-2-yloxy)pyridin-2-yl)propoxy)benzamide]
100 to 500	CC[C@@H](Oc1ccc(C(=O)NS(=O)(=O)N2CCC(OCCN(C)C)CC2)c(F)c1F)c1ccc(Oc2ccccn2)cn1 [Compound C, (R)-N-((4-(2-(dimethylamino)ethoxy)piperidin-1-yl)sulfonyl)-2,3-difluoro-4-(1-(5-(pyridin-2-yloxy)pyridin-2-yl)propoxy)benzamide]
